“Also recorded” adds a separate entry of the source.
How the values were obtained:
[1] = test system: CD1d; assay: CD1d mRNA expression (RT-PCR, Affymetrix microarray) in monocyte-derived DC; type: cell-based, human; conditions: IDC; for Induction of CD1d by receptor-specific agonists: 2.5 microM RSG, 200 nM GW7845, 1 microM GW501516, 20 microM WY14643, 1 microM T0901317, FIG. 5B
Description: DC generation and maturation. Highly enriched monocytes (98% CD14+) were obtained from buffy coats of healthy donors (provided by the local blood center) by Ficoll gradient centrifugation and immunomagnetic cell separation using anti-CD14-conjugated microbeads (VarioMACS; Miltenyi Biotec). Human monocyte-derived IDCs were prepared as described previously (Sallusto and Lanzavecchia, 1994) with minor modification. In brief, monocytes were resuspended into six-well culture dishes at a density of 1.5×10^6 cells/ml and cultured in RPMI 1640 supplemented with 10% FBS (Invitrogen), containing 800 U/ml GM-CSF (Leucomax) and 500 U/ml IL-4 (Peprotech). Cells were cultured for 5 or 6 days and the IL-4 and GM-CSF addition was repeated at day 2 to obtain a population of immature DCs. In some experiments FBS was replaced with human AB serum (Sigma). To obtain MDCs, IDCs were treated with a mixture of cytokines: 10 ng/ml TNF-alpha (Peprotech), 10 ng/ml IL-1beta (Peprotech), 1000 U/ml IL-6 (Peprotech), 1 microg/ml PGE2 (Sigma) and 800 U/ml GM-CSF for 24 hr (Jonuleit et al., 1997).
(§1) Ligands or vehicle control (50% DMSO/ethanol) were added to the cell culture starting from the first day.
Microarray experiment. Total RNA was isolated using Trizol Reagent (Invitrogen) and further purified by using the RNeasy kit (Quiagen). cRNA was generated from 5 microg of total RNA by using the SuperScript Choice kit (Invitrogen) and the High Yield RNA transcription labeling kit (Enzo Diagnostics). Fragmented cRNA was hybridized to Affymetrix (Santa Clara, Calif.) arrays (HU95A) according to Affymetrix standard protocols. Preliminary data analysis was performed by the Microarray Core Facility at University of California at Irvine. Further analysis was performed using GeneSpring 6.0 (Silicon Genetics, Redwood City, Calif.). These analyses provided a signal for each specific transcript that was subsequently normalized by comparing to the median signal (arbitrary value of 1.0) obtained from the whole array.
(§2) Real-time RT-PCR. […] The following primers and probes were used: […]

[2] = test system: iNKT cells; assay: Expansion of iNKT cells by alpha-GalCer pulsed DC in autologous PBMC coculture; type: cell-based, human; conditions: for Induction of iNKT (Valpha24+ Vbeta11+) cell expansion vs untreated DC: 5-day coculture
Description: FACS analysis. Cell staining was performed using alpha-GalCer-loaded APC-labeled CD1d-tetramer (kindly provided by A. Herbelin) and FITC-, Cyc- or PE-conjugated mAbs. Labeled antibodies for flow cytometry included anti-CD161-Cyc, CD8-PE, CD25-PE, CD1a-PE, CD1d-PE, CD86-PE, CD83-PE, CD206-PE, CD3- FITC, CD36-FITC, CD80-FITC, CD209-FITC, HLA-DR-FITC and isotype-matched controls (BD PharMingen), anti-Vbetal 1-PE and anti-Valpha24-FITC (Immunotech). The cells were assessed for fluorescence intensity using EPICS Elite flow cytometer (Beckman Coulter) or with FACS Calibur cytometer (Beckton Dickinson). Data analysis was performed using WinMDI software (Joseph Trotter, The Scripps Research Institute, La Jolla, Calif.).
Expansion of iNKT cells. IDCs were treated with or without the inflammatory mixture as described previously and with 100ng/ml alpha-GalCer for 24 hr to obtain alpha-GalCer-loaded MDC or IDC, respectively. alpha-GalCer pulsed IDCs or MDCs (2×10^5 cells/ml) were cocultured with 2×10^6 monocyte depleted autologous PBMC for 5 days in 24 well plates. The expansion of iNKT cells was monitored by quantifying Valpha24+ Vbetal 1+ and Valpha24+ CD161+ cells by FACS analysis. The specificity of CD1d-restricted NKT cells was also verified by alpha-GalCer loaded APC-labelled CD1d tetramer staining.

[3] = target: T1, PPARg (Homo sapiens, UniProt P37231); assay: FABP4 and other PPARg target gene mRNA expression by real-time RT-PCR in differentiating monocyte-derived DC; type: cell-based; conditions: for Induction of FABP4 by receptor-specific agonists: IDC, 2.5 microM RSG, 200 nM GW7845, 1 microM GW501516, 20 microM WY14643, 1 microM T0901317, FIG. 5A
T1 construct: endogenous in cells; host or cells: human monocyte-derived dendritic cells (CD14+ monocytes from buffy coats, GM-CSF + IL-4)
T1 sequence (P37231 1-505): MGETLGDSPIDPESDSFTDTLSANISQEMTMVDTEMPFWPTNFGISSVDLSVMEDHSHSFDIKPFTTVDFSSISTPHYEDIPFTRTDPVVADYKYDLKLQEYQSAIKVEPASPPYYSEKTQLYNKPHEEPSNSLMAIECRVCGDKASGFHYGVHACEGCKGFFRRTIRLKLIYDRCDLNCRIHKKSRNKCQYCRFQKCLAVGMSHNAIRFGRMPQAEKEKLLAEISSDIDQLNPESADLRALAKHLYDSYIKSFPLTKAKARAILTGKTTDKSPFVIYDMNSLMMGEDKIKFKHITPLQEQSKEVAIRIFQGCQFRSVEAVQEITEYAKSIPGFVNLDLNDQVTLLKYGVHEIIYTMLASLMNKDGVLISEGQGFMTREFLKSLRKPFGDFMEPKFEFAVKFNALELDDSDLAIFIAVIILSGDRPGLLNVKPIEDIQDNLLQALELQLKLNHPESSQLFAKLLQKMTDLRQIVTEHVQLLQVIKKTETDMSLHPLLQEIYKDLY
Description: DC generation and maturation. Highly enriched monocytes (98% CD14+) were obtained from buffy coats of healthy donors (provided by the local blood center) by Ficoll gradient centrifugation and immunomagnetic cell separation using anti-CD14-conjugated microbeads (VarioMACS; Miltenyi Biotec). […] Cells were cultured for 5 or 6 days and the IL-4 and GM-CSF addition was repeated at day 2 to obtain a population of immature DCs. In some experiments FBS was replaced with human AB serum (Sigma).
as §1, §2

O=S(=O)(c1ccccc1)N(CC(F)(F)F)c1ccc(C(O)(C(F)(F)F)C(F)(F)F)cc1 [T0901317]
Induction of CD1d by receptor-specific agonists [1]: failed to activate CD1d

CCCCCCCCCCCCCCCCCCCCCCCCCC(=O)N[C@@H](CO[C@H]1O[C@H](CO)[C@H](O)[C@H](O)[C@H]1O)[C@H](O)[C@H](O)CCCCCCCCCCCCCC [alpha-GalCer, alpha-galactosyl-ceramide]
Expansion of Valpha24+ Vbeta11+ iNKT cells by glycolipid loading of DC ([2]; DC pulsed with 100ng/ml alpha-GalCer for 24 hr, 5 days coculture): necessary for the potent induction; also recorded: remarkable expansion of iNKT cells

O=C(Nc1ccccc1)c1cc([N+](=O)[O-])ccc1Cl [GW9662]
Inhibition of PPARg specific induction of CD1d by antagonist ([1]; 5 microM GW9662 with 2.5 microM RSG): inhibited
Block of the more pronounced FABP4 increase in human AB serum ([3]; 5 microM GW9662, FBS replaced with human AB serum): blocked effectively
Inhibition of FABP4 up-regulation by PPARg antagonist ([3]; 5 microM GW9662, untreated and 2.5 microM RSG treated DC): able to prevent the up-regulation of FABP4; also recorded: inhibited

CN(CCOc1ccc(CC2SC(=O)NC2=O)cc1)c1ccccn1 (stereo not shown) [RSG, Rosiglitazone]
Induction of iNKT (Valpha24+ Vbeta11+) cell expansion vs untreated DC ([2]; alpha-GalCer loaded RSG treated IDC, depending on the donor): 1.5-10.25 fold
Induction of iNKT (Valpha24+ Vbeta11+) cell expansion vs untreated DC ([2]; alpha-GalCer loaded RSG treated MDC as stimulator): 1.1-4 fold

Cc1cccc(Nc2cc(Cl)nc(SCC(=O)O)n2)c1C [Wy14,643]
Induction of FABP4 by receptor-specific agonists [3]: much less potently

COC(=O)c1ccccc1N[C@@H](Cc1ccc(OCCc2nc(-c3ccccc3)oc2C)cc1)C(=O)O [GW7845]
Induction of CD1d by receptor-specific agonists [1]: turn on gene expression
Induction of FABP4 by receptor-specific agonists [3]: specifically up-regulated
